# Laboratory results published in US12344595B2, “2-amino-n-phenyl-nicotinamides as NAV1.8 inhibitors” (Merck Sharp & Dohme LLC, priority 2018, dated 2025).
# Biological target: human Nav1.8 (Homo sapiens (Human), UniProt Q9Y5Y9)
# Experiment: Nav1.8 Qube automated patch-clamp assay
# Type: cell-based
# Settings: Nav1.8 Qube Assay; human Nav1.8 channels stably expressed in HEK 293 cells
# Method: Qube® Assay Experimental Procedure
# Compounds were tested on human Nav1.8 and Nav1.5 channels stably expressed in human embryo kidney (HEK) 293 cells. Sodium current measurements on Qube® were conducted as follows: automated 384-well patch-clamp assays on the Qube® platform (Sophion Biosciences) were used to measure the inhibition of sodium flow through human Nav1.8 and Nav1.5 channels. Whole-cell voltage-clamp recordings were performed in QChips® (Sophion Biosciences) at room temperature. Nav1.8 current measurements on Qube® were obtained as follows: Nav1.8 currents were elicited with a 10 second 1 Hertz (Hz) pulse train from a holding potential of −90 millivolts (mV), delivered to the cells once per minute in the control condition (DMSO only) and after compound addition. The 1 hertz pulse train stimulation consisted of ten test pulses to 10 millivolt (mV) for 20 milliseconds (ms), each of which was followed by a 980 millisecond repolarization to −67 millivolts. At the end of the 10 second pulse train stimulation, a 5 second hyperpolarization step to −100 millivolt (mV) was used to recover Nav1.8 from fast inactivation. The peak currents elicited by the 1st and 10th test pulses were used to determine IC50 values for resting inhibition and inactivated state inhibition. Nav1.5 current measurements on Qube® were obtained as follows: Nav1.5 currents were elicited with a 20 second 3 Hertz pulse train in the control condition (DMSO only) and after compound addition. The pulse train consisted of sixty 20 millisecond test pulses to 0 millivolt from a holding potential of −80 millivolt (mV). The average peak currents elicited by the last 3 test pulses were used to determine IC50 values for Nav1.5 inhibition.
# The following buffers were used for the Qube® recordings: External buffer for Nav1.8 Qube® recording: 150 NaCl, 2 CaCl2, 5 KCl, 1 Mg Cl2, 10 HEPES, 12 Dextrose; External buffer for Qube® Nav1.5 recording: 120 N-Methyl-D-Glucamine, 40 NaCl, 1 KCl, 2.7 CaCl2, 5 HEPES, 0.5 MgCl2; and Internal buffer for Qube® recording: 120 CsF, 30 CsCl, 10 EGTA, 5 HEPES, 5 NaF, 2 MgCl2.
# For all Qube® experiments offline analysis was used to determine percent inhibition as a function of drug concentration. IC50 values were determined by fitting to the Hill equation.
# Sequence of human Nav1.8 (Q9Y5Y9 whole entry): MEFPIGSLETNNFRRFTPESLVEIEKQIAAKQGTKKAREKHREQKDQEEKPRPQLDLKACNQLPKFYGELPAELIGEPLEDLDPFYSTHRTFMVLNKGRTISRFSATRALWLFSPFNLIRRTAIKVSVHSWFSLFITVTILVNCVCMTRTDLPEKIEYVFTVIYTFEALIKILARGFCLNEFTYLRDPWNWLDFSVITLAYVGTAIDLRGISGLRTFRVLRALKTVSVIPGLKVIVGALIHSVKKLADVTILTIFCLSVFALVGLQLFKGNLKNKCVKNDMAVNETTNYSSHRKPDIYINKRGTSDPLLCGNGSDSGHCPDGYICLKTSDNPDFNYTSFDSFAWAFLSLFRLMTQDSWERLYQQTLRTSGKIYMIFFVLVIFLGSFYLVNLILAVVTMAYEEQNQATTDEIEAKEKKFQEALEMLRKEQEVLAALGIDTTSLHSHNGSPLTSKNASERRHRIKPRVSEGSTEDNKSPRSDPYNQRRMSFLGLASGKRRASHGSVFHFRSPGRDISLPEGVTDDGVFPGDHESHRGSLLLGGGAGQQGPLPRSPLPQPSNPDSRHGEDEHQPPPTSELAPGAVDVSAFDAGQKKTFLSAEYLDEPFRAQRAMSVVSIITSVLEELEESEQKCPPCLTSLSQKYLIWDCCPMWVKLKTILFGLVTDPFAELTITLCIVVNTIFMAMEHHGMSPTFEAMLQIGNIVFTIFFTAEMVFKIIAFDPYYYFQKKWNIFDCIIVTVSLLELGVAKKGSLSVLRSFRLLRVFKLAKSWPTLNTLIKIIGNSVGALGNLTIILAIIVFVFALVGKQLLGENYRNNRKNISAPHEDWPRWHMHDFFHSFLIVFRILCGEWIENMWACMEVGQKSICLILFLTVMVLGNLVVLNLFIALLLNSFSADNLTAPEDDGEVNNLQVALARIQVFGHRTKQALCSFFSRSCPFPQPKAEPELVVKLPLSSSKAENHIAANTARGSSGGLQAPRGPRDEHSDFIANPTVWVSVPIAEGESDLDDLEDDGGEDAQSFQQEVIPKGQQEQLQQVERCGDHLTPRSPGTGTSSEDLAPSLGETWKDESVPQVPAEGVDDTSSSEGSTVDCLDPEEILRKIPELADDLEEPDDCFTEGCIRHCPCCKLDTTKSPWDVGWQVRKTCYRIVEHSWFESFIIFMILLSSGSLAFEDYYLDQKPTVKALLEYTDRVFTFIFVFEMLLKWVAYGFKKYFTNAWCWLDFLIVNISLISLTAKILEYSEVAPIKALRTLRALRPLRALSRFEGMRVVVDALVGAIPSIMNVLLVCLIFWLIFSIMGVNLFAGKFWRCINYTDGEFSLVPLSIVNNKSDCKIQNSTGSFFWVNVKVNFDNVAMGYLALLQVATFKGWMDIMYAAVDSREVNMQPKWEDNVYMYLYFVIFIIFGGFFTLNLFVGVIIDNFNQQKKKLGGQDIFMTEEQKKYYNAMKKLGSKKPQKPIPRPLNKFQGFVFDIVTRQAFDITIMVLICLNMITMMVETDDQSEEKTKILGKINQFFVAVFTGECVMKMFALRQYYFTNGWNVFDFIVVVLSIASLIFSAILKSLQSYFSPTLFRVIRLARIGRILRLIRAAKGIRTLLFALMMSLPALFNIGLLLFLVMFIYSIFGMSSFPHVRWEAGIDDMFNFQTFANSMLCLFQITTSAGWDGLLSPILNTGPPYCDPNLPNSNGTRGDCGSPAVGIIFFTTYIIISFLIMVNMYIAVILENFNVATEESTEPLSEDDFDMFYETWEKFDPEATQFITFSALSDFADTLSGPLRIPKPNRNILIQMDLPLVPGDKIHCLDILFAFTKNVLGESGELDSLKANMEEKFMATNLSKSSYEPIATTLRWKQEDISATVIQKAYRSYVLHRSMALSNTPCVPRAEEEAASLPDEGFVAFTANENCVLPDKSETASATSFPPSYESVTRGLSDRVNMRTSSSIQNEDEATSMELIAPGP
row,SMILES,IC50
1,"NS(=O)(=O)c1cccc(NC(=O)c2cc(C(F)(F)F)cnc2N2CCC(F)(F)C2)c1 [Example 60, 2-(3,3-difluoropyrrolidin-1-yl)-N-(3-sulfamoyl-phenyl)-5-(trifluoromethyl) pyridine-3-carboxamide]",737 nM
2,"Cc1cc(C)c(C(=O)Nc2cccc(S(N)(=O)=O)c2)c(N2CCCCCC2)n1 [Example 4, 2-(azepan-1-yl)-4,6-dimethyl-N-(3-sulfamoyl-phenyl)pyridine-3-carboxamide]",14 nM
3,"NS(=O)(=O)c1cccc(NC(=O)c2cc(C(F)(F)F)cnc2N2CCCC[C@H](F)C2)c1 [Example 54, 2-[(3S)-3-fluoroazepan-1-yl]-N-(3-sulfamoyl-phenyl)-5-(trifluoro-methyl)pyridine-3-carboxamide]",338 nM
4,"Cc1nc(N2CCCC(F)(F)CC2)c(C(=O)Nc2cccc(C(N)=O)c2)cc1C#N [Example 177, N-(3-carbamoylphenyl)-5-cyano-2-(4,4-difluoroazepan-1-yl)-6-methyl-pyridine-3-carboxamide]",28 nM
5,"NS(=O)(=O)c1cccc(NC(=O)c2ccc(C(F)(F)C(F)(F)F)nc2N2CCCCC2)c1 [Example 165, 6-(1,1,2,2,2-pentafluoroethyl)-2-(1-piperidyl)-N-(3-sulfamoylphenyl) pyridine-3-carboxamide]",342 nM
6,"CS(=O)(=O)c1cccc(NC(=O)c2cc(Br)cnc2N2CCCCCC2)c1 [Example 35, 2-(azepan-1-yl)-5-bromo-N-(3-methylsulfonyl-phenyl)pyridine-3-carboxamide]",29 nM
7,"CS(=O)(=O)c1cccc(NC(=O)c2cc(C(F)(F)F)cnc2N2CCCCCCC2)c1 [Example 95, 2-(azocan-1-yl)-N-(3-methylsulfonylphenyl)-5-(trifluoromethyl)-pyridine-3-carboxamide]",20 nM
8,"CN1Cc2ccc(NC(=O)c3cc(C(F)(F)F)cnc3N3CCCCCC3)cc2S1(=O)=O [Example 122, 2-(azepan-1-yl)-3-((2-methyl-1,1-dioxido-2,3-dihydrobenzo[d]isothiazol-6-yl)-carbamoyl)-5-(trifluoromethyl)pyridine]",9140 nM
9,"CC1CN(c2ncc(C(F)(F)F)cc2C(=O)Nc2cccc(S(N)(=O)=O)c2)CCC1(F)F (single isomer, unassigned) [Example 123, (R or S)-2-(4,4-Difluoro-3-methylpiperidin-1-yl)-N-(3-sulfamoylphenyl)-5-(trifluoromethyl)nicotinamide]",3 nM
10,"CC1CCN(c2ncc(C(F)(F)F)cc2C(=O)Nc2cccc(S(N)(=O)=O)c2)CC(C)(C)C1 (stereo not shown) [Example 47, N-(3-sulfamoylphenyl)-5-(trifluoromethyl)-2-(3,3,5-trimethylazepan-1-yl)pyridine-3-carboxamide]",29 nM
11,"NS(=O)(=O)c1cc(NC(=O)c2cc(C(F)(F)F)cnc2N2CCC(F)(F)CC2)cc(F)c1F [Example 171, N-(3,4-difluoro-5-sulfamoylphenyl)-2-(4,4-difluoropiperidin-1-yl)-5-(trifluoro-methyl)nicotinamide]",137 nM
12,"CC1CN(c2ncc(C(F)(F)F)cc2C(=O)Nc2ccc3c(c2)S(=O)(=O)NC3)CCC1(F)F (single isomer, unassigned) [Example 113, 2-[(3S or 3R)-4,4-difluoro-3-methyl-1-piperidyl]-N-(1,1-dioxo-2,3-dihydro-1,2-benzothiazol-6-yl)-5-(trifluoromethyl) pyridine-3-carboxamide]",73 nM
13,"COc1ccc(C(=O)Nc2cccc(S(C)(=O)=O)c2)c(N2CCCC(F)(F)CC2)n1 [Example 11, 2-(4,4-difluoroazepan-1-yl)-6-methoxy-N-(3-methylsulfonylphenyl) pyridine-3-carboxamide]",31 nM
14,"NS(=O)(=O)c1cccc(NC(=O)c2cc(C(F)(F)F)cnc2N2CCC3(CC2)CC3)c1 [Example 43, 2-(6-azaspiro[2.5]octan-6-yl)-N-(3-sulfamoylphenyl)-5-(trifluoromethyl)nicotinamide]",57 nM
15,"NS(=O)(=O)c1cccc(NC(=O)c2cc(C(F)(F)F)cnc2N2CCO[C@H](C(F)(F)F)C2)c1 [Example 140, N-(3-sulfamoylphenyl)-5-(trifluoromethyl)-2-[(2S)-2-(trifluoro-methyl)--morpholin-4-yl]pyridine-3-carboxamide]",83 nM
16,"O=C(Nc1ccc2c(c1)S(=O)(=O)C=C2)c1cc(C(F)(F)F)cnc1N1CCCCCC1 [Example 118, 2-(azepan-1-yl)-N-(1,1-dioxobenzothiophen-6-yl)-5-(trifluoromethyl)-pyridine-3-carboxamide]",2280 nM

row,SMILES,IC50
1,"NS(=O)(=O)c1cccc(NC(=O)c2cc(C(F)(F)F)cnc2N2CC3COC(C3)C2)c1 (stereo not shown) [Example 64, 2-(6-oxa-3-azabicyclo[3.2.1]octan-3-yl)-N-(3-sulfamoyl-phenyl)-5-(trifluoro-methyl)pyridine-3-carboxamide]",2160 nM
2,"COC(=O)C1CCCCN(c2ncc(C(F)(F)F)cc2C(=O)Nc2cccc(S(N)(=O)=O)c2)C1 (stereo not shown) [Example 67, methyl 1-[3-[(3-sulfamoylphenyl)carbamoyl]-5-(trifluoro-methyl)-2-pyridyl]-azepane-3-carboxylate]",2980 nM
3,"CS(=O)(=O)c1cccc(NC(=O)c2cc(C(F)(F)F)cnc2N2CCC3(CC2)CC3)c1 [Example 99, 2-(6-azaspiro[2.5]octan-6-yl)-N-(3-methylsulfonylphenyl)-5-(trifluoromethyl)-pyridine-3-carboxamide]",131 nM
4,"NC(=O)c1cccc(NC(=O)c2cc(C(F)(F)F)cnc2N2CCCC(F)(F)CC2)c1 [Example 106, N-(3-carbamoylphenyl)-2-(4,4-difluoroazepan-1-yl)-5-(trifluoro-methyl)pyridine-3-carboxamide]",32 nM
5,"NS(=O)(=O)c1cccc(NC(=O)c2cc(C(F)(F)F)cnc2N2CCNC(C(F)(F)F)C2)c1 (stereo not shown) [Example 143, N-(3-sulfamoylphenyl)-5-(trifluoromethyl)-2-[3-(trifluoromethyl)-piperazin-1-yl]pyridine-3-carboxamide]",2180 nM
6,"C=CCCc1cnc(N2CCCC(F)(F)CC2)c(C(=O)Nc2cccc(S(N)(=O)=O)c2)c1 [Example 161, 5-(but-3-en-1-yl)-2-(4,4-difluoroazepan-1-yl)-N-(3-sulfamoylphenyl)nicotinamide]",3.2 nM
7,"CC(C)Cc1cnc(N2CCCCC2)c(C(=O)Nc2cccc(S(N)(=O)=O)c2)c1 [Example 153, 5-isobutyl-2-(piperidin-1-yl)-N-(3-sulfamoylphenyl)nicotinamide]",2240 nM
8,"NS(=O)(=O)c1cccc(NC(=O)c2cc(C(F)(F)F)cnc2N2CC3(CCOCC3)C2)c1 [Example 81, 2-(7-oxa-2-azaspiro[3.5]nonan-2-yl)-N-(3-sulfamoyl-phenyl)-5-(trifluoro-methyl)nicotinamide]",4240 nM
9,"NS(=O)(=O)c1cccc(NC(=O)c2cc(C(F)(F)F)cnc2N2CC3CCCC32)c1 (stereo not shown) [Example 59, 2-(6-azabicyclo[3.2.0]heptan-6-yl)-N-(3-sulfamoyl-phenyl)-5-(trifluoro-methyl)pyridine-3-carboxamide]",698 nM
10,"CS(=O)(=O)c1cccc(NC(=O)c2cc(C(F)(F)F)cnc2N2CC3CCC(F)(F)C3C2)c1 (stereo not shown) [Example 96, 2-(4,4-difluoro-1,3,3a,5,6,6a-hexahydrocyclopenta[c]pyrrol-2-yl)-N-(3-methylsulfonylphenyl)-5-(trifluoromethyl)-pyridine-3-carboxamide]",40 nM
11,"Cc1cnc(N2CCCCCC2)c(C(=O)Nc2cccc(S(N)(=O)=O)c2)c1 [Example 23, 2-(azepan-1-yl)-5-methyl-N-(3-sulfamoyl-phenyl)nicotinamide]",112 nM
12,"COc1nc(N2CCCCCC2)c(C(=O)Nc2cccc(S(N)(=O)=O)c2)cc1C(F)(F)F [Example 169, 2-(azepan-1-yl)-6-methoxy-N-(3-sulfamoylphenyl)-5-(trifluoromethyl)nicotinamide]",42 nM
13,"COC(=O)N1CCN(c2ncc(C(F)(F)F)cc2C(=O)Nc2cccc(S(N)(=O)=O)c2)CC1 [Example 74, methyl 4-[3-[(3-sulfamoylphenyl)carbamoyl]-5-(trifluoro-methyl)-2-pyridyl]-piperazine-1-carboxylate]",9970 nM
14,"Cc1ccc(C(=O)Nc2cccc(C(N)=O)c2)c(N2CCCC(F)(F)CC2)n1 [Example 75, N-(3-carbamoylphenyl)-2-(4,4-difluoroazepan-1-yl)-6-methylnicotinamide]",16 nM
15,"NS(=O)(=O)c1cccc(NC(=O)c2cc(OC(F)(F)F)cnc2N2CCCC(F)(F)CC2)c1 [Example 39, 2-(4,4-difluoroazepan-1-yl)-N-(3-sulfamoylphenyl)-5-(trifluoromethoxy)nicotinamide]",2.5 nM
